Laboratory results from patent publication US11014947B2, “Lipophenol compounds and uses thereof” (INSTITUT NATIONAL DE LA SANTE ET DE LA RECHERCHE MEDICALE …, priority 2014, dated 2021).
Where two headings read alike, the source gives them in different places.

How the values were obtained:
ARPE-19 cell lines [1] = assay: ARPE-19 cell survival, co-treatment with atRAL 25 μM; type: cell-based
Description: Co-treatment were performed with lipophenols onto ARPE-19 (FIG. 4). Incubation for 4 h with atRAL decreased cell viability to 35%. The protection of ARPE-19 by phloroglucinol (PG) was dose-dependent but weak (less than 10%). In contrast, most of the PG derivatives were more protective, in particular the presence of two or three DHA linked to PG provided a strong protection (up to 73% survival), as well as the mono-alkylation (methyl and isopropyl) were sufficient to protect 60% of cells. PG-OiP-DHA was confirmed to be among the most efficient (74%).

complexes CI and CII = assay: Mitochondrial respiration in ARPE-19 cell line (oxygraph); type: cell-based
Excerpt: Oxidative stress originates from physiological reactions taking place practically inside each cell of an organism. The production of reactive oxygen species (ROS) accompanies, for example, oxidative phosphorylation-derived ATP-based energy metabolism which takes place in the mitochondria of a cell. Under physiological conditions, ROS are neutralized by effective enzymatic and non-enzymatic defense mechanisms, contributing to the maintenance of a proper balance. However, an excess of ROS, resulting from their overproduction in pathophysiological conditions, will disturb the equilibrium and lead eventually to deleterious consequences for the cell. Maeda et al. (JBC 284(22), 2009) have reported that atRal impairs mitochondrial oxidative phosphorylation. Therefore, mitochondrial respiration was measured in ARPE-19 cell line using oxygraph after exposure to 25 μM atRal and/or 40 μM 13b (FIG. 3).

ARPE-19 = assay: atRAL-induced cell death, Annexin V-FITC / propidium iodide flow cytometry; type: cell-based; settings: 4 h
Description: Further investigations were made to define the atRAL-induced cell death (apoptotic versus necrotic) and validate the protective effect of PG-OiP-DHA (FIG. 6). Cells were incubated for 4 h with atRAL 25 μM, PG-OiP-DHA (compound 13b) 40 μM, or both. Treated ARPE-19 were labeled with Annexin V-FITC (A) and propidium iodide (PI) to separate by flow cytometry healthy cells (no labeling), early apoptosis (A+ and PI−) and necrotic cells (A+ and PI+). In CTL or PG-OiP-DHA-treated cells only 6 to 10% died. After 4 h atRAL, cell death reached 46%, mainly at necrotic stage (41%).

ARPE-19 cell lines [2] = settings: for % Survival: untreated cells = 100; for cell survival: text summary of Table 1, AtR 25 μM
Description: The biological assay is based on the measure of cell survival after treatment with the lipophenol prior incubation (pre-incubation process) with the carbonyl stressor AtR. The toxic AtR concentration (25 μM) was determined to reduce cell survival by 60 to 70%. Results are expressed as % of cell survival in treated (lipophenol/all-trans-retinal) vs untreated cells (taken as 100%).
ARPE-19 cells were settled in 96-well plates (3×10^4 cells/well) and cultured 24 h to reach confluence before drug treatment. Cell cultures received a serum-free medium containing drugs at different concentrations (10-40 μM) for one hour and trans-retinal (25 μM) was added for 4 more hours before rinsing with medium. The viability of cells in triplicate samples was determined 16-20 h after with a MTT colorimetric assay. After 2 h incubation with 0.5 mg/ml MU, insoluble purple formazan produced was dissolved in DMSO. The absorbance at 570 nm and 655 nm of individual wells was measured by a microplate reader (BioRad 550).

[3] = tested on: mitochondrial respiratory chain (MRC) complex; assay: Mitochondrial respiratory chain complex enzymatic activities and protein expression; type: cell-based; settings: atRAL treatment with PG-OiP-DHA (FIG. 5, FIG. 14)
Excerpt: In a cellular context, PG-OiP-DHA (compound 13b) has been shown able to partially restore mitochondrial oxidative respiration impaired by the atRAL (example 10). Because this repair might be produced by targeting the whole oxidative chain or each individual respiratory complex, this potency was further investigated by measuring the intrinsic activity of each mitochondrial respiratory chain (MRC) complex (enzymology) and their level of protein expression (FIG. 5). […] This was supported by the loss of MRC protein expression.
Several experiments were made to validate the efficacy of PG-OiP-DHA in the protection of the mitochondrial activity (FIG. 14).

RPE primary cells [4] = assay: Primary RPE cultures, pre-treatment 24 h, H2O2 450 μM 2 h, cell viability assay; type: cell-based; settings: H2O2 450 μM 2 h (FIG. 7)
Description: a. Pre-treatment 24 h, H2O2 450 μM 2 h; cell viability assay

RPE primary cells [5] = assay: Primary RPE cultures, co-incubation 4 h with atRAL 25 μM, cell viability assay; type: cell-based; settings: co-incubation 4 h with atRAL 25 μM (FIG. 9)
Description: c. Co-incubation 4 h with atRAL 25 μM; cell viability assay
To compare the anti-carbonyl efficacies of phloroglucinol (22% gain of survival) and PG-OiP-DHA (69%) in a condition to probe their scavenging properties in primary RPE cells (FIG. 9).

RPE primary cells [6] = assay: Primary RPE cultures, pre-treatment 24 h, atRAL 25 μM 4 h, cell viability assay; type: cell-based; settings: atRAL 25 μM 4 h (FIG. 8)
Description: b. Pre-treatment 24 h, atRAL 25 μM 4 h; cell viability assay

[7] = tested on: neural retina cell cultures; assay: Cytoprotection in neural retina cell cultures exposed to atRal (MTT); type: cell-based; settings: 13b 10 to 100 μM, atRal 50-75-100 μM added 1 h after, 4 h co-incubation
Description: The effect of compound 13b on cell viability was examined after co-incubation with atRal. Cell cultures were incubated with 13b (10 to 100 μM) and atRal (50-75-100 μM) was added 1 h after for a 4 h co-incubation. Cells were then cultured in serum-free medium for 16-20 h and their viability was determined with a MTT assay.

[8] = compound 10 μM 1 h, then AtR 25 μM 4 h, MTT after 16-20 h
[9] = compound 40 μM 1 h, then AtR 25 μM 4 h, MTT after 16-20 h
[10] = co-incubation atRAL 25 μM + PG-OiP-DHA 40 μM

Structure (SMILES): CC1=C(/C=C/C(C)=C/C=C/C(C)=C/C=O)C(C)(C)CCC1 [AtR, all-trans-retinal, reference compound]
- cell viability (ARPE-19 cell lines [1]; atRAL 25 μM alone, 4 h): 35%
- inhibition of the activity of complexes CI and CII (complexes CI and CII; 25 μM atRal alone): strongly inhibits
- cell death (ARPE-19; atRAL 25 μM alone): 46%
- necrotic stage cells (ARPE-19; atRAL 25 μM alone): 41%
- % Survival (ARPE-19 cell lines [2]; AtR 25 μM alone): 29.1 ± 5.4%

Structure (SMILES): CC/C=C\C/C=C\C/C=C\C/C=C\C/C=C\C/C=C\CCC(=O)Oc1cc(OC(=O)CC/C=C\C/C=C\C/C=C\C/C=C\C/C=C\C/C=C\CC)cc(OC(=O)CC/C=C\C/C=C\C/C=C\C/C=C\C/C=C\C/C=C\CC)c1 [Compound 8, (4,4′,4″,7,7′,7″,10,10′,10″,13,13′,13″,16,16′,16″,19,19′,19″Z)-benzene-1,3,5-triyl tridocosa-4,7,10,13,16,19-hexaenoate]
- % Survival (ARPE-19 cell lines [2]; [8]): 33.3 ± 4.1%
- % Survival (ARPE-19 cell lines [2]; [9]): 47.7 ± 3.2%
- cell survival (ARPE-19 cell lines [2]): 50%

Structure (SMILES): CC(C)Oc1cc(O)cc(O)c1 [Compound 9b, 5-isopropoxybenzene-1,3-diol, reference compound]
- % Survival (ARPE-19 cell lines [2]; [8]): 30.6 ± 1.2%
- % Survival (ARPE-19 cell lines [2]; [9]): 32.7 ± 1.8%

Structure (SMILES): CC/C=C\C/C=C\C/C=C\C/C=C\C/C=C\C/C=C\CCC(=O)Oc1cc(O)cc(OC)c1 [Compound 13a, (4,7,10,13,16,19 Z)-3-hydroxy-5-methoxyphenyl docosa-4,7,10,13,16, 19-hexaenoate]
- % Survival (ARPE-19 cell lines [2]; [8]): 32.6 ± 3.7%
- % Survival (ARPE-19 cell lines [2]; [9]): 44.9 ± 1.9%
- cell survival (ARPE-19 cell lines [2]): as active as 8

Structure (SMILES): CC/C=C\C/C=C\C/C=C\C/C=C\C/C=C\C/C=C\CCC(=O)Oc1cc(O)cc(OC(C)C)c1 [Compound 13b, (4,7,10,13,16,19 Z)-3-hydroxy-5-isopropoxyphenyl docosa-4,7,10,13,16,19-hexaenoate]
- preservation of complex II and IV enzymatic activities affected by atRAL [3]: significantly preserved
- gain of survival (anti-oxidant efficacy) (RPE primary cells [4]): 20%
- gain of survival (anti-carbonyl efficacy, scavenging) (RPE primary cells [5]): 69%
- survival (ARPE-19 cell lines [1]; co-treatment with atRAL 25 μM 4 h, doses 5-80 μM (FIG. 4)): 74%
- reversal of atRal inhibition of complexes CI and CII (complexes CI and CII; 40 μM 13b with 25 μM atRal): partially reverse this inhibition
- inhibition of the activity of each complex by the compound alone (complexes CI and CII; 40 μM 13b, no atRal): no significant inhibition
- gain of survival (anti-carbonyl efficacy) (RPE primary cells [6]): 42%
- necrotic cells (ARPE-19; [10]): 16%
- total cell death (ARPE-19; [10]): 18%
- % Survival (ARPE-19 cell lines [2]; [8]): 43.2 ± 7.5%
- % Survival (ARPE-19 cell lines [2]; [9]): 66.8 ± 8.6%
- reversal of atRal cytotoxicity [7]: robustly reversed

Structure (SMILES): CC/C=C\C/C=C\C/C=C\C/C=C\C/C=C\C/C=C\CCC(=O)Oc1ccc(/C=C/c2cc(O)cc(O)c2)cc1 [Compound 20, (4,7,10,13,16,19 Z)-4-((E)-3,5-dihydroxyphenylstyryl)phenyl docosa-4,7,10,13,16,19-hexaenoate]
- protective effect (ARPE-19 cell lines [1]; co-treatment with atRAL 25 μM 4 h (FIG. 4)): very potent

Structure (SMILES): CC/C=C\C/C=C\C/C=C\C/C=C\C/C=C\C/C=C\CCC(=O)O [DHA, docosahexaenoic acid, reference compound]
- % Survival (ARPE-19 cell lines [2]; [8]): 23.5 ± 2.7%
- % Survival (ARPE-19 cell lines [2]; [9]): 7.3 ± 5.0%

Structure (SMILES): Oc1cc(O)cc(O)c1 [Phloroglucinol, phloroglucinol, reference compound]
- gain of survival (anti-oxidant efficacy) (RPE primary cells [4]): 10%
- gain of survival (anti-carbonyl efficacy, scavenging) (RPE primary cells [5]): 22%
- protection of ARPE-19 (ARPE-19 cell lines [1]; co-treatment with atRAL 25 μM, doses 5-80 μM): less than 10%
- gain of survival (anti-carbonyl efficacy) (RPE primary cells [6]): 18%
- increase of RPE cell survival (ARPE-19 cell lines [2]; 40 μM, AtR 25 μM): 10%
- % Survival (ARPE-19 cell lines [2]; [8]): 35.5 ± 3.3%
- % Survival (ARPE-19 cell lines [2]; [9]): 41.6 ± 9.2%
